Bounds are passed on as bounds.

The target of assay [1] is Carbonic anhydrase 7 (Homo sapiens, UniProt P43166). The assay can be described thus: Binding affinity to recombinant human CA7 by DSF-based fluorescence thermal shift assay.
Assay [2] deals with Carbonic anhydrase 4 (Homo sapiens, UniProt P22748). The assay can be described thus: Binding affinity to recombinant human CA4 by DSF-based fluorescence thermal shift assay.
For assay [3], the target named is Carbonic anhydrase 9 (Homo sapiens, UniProt Q16790). Briefly: Binding affinity to recombinant human CA9 by DSF-based fluorescence thermal shift assay.
The target of assay [4] is Carbonic anhydrase 1 (Homo sapiens, UniProt P00915). Briefly: Binding affinity to recombinant human CA1 by DSF-based fluorescence thermal shift assay.
The target of assay [5] is Carbonic anhydrase 14 (Homo sapiens, UniProt Q9ULX7). Briefly: Binding affinity to recombinant N-terminal His6x-tagged human CA14 (20 to 280 residues) catalytic domain expressed in Escherichia coli Rosetta 2 (DE3) by DSF-based fluorescence thermal shift assay.
In assay [6] the target is Carbonic anhydrase 5B, mitochondrial (Homo sapiens, UniProt Q9Y2D0). The assay can be described thus: Binding affinity to recombinant full length N-terminal His6x-tagged human CA5B expressed in Escherichia coli Rosetta 2 (DE3) by DSF-based fluorescence thermal shift assay.
Assay [7] deals with Carbonic anhydrase 13 (Homo sapiens, UniProt Q8N1Q1). The assay can be described thus: Binding affinity to recombinant human CA13 by DSF-based fluorescence thermal shift assay.
The target of assay [8] is Carbonic anhydrase 3 (Homo sapiens, UniProt P07451). Briefly: Binding affinity to recombinant N-terminal His6x-tagged human CA3 (4 to 260 residues) expressed in Escherichia coli BL21(DE3) by DSF-based fluorescence thermal shift assay.
For assay [9], the target named is Carbonic anhydrase 5A, mitochondrial (Homo sapiens, UniProt P35218). Briefly: Binding affinity to recombinant full length C-terminal His6x-tagged human CA5A expressed in Escherichia coli BL21(DE3) by DSF-based fluorescence thermal shift assay.
The target in assay [10] is T1, Carbonic anhydrase 2 (Homo sapiens, UniProt P00918). The assay can be described thus: Binding affinity to recombinant human CA2 by DSF-based fluorescence thermal shift assay.
In assay [11] the target is Carbonic anhydrase 6 (Homo sapiens, UniProt P23280). The assay can be described thus: Binding affinity to recombinant human CA6 by DSF-based fluorescence thermal shift assay.
The target in assay [12] is Carbonic anhydrase 12 (Homo sapiens, UniProt O43570). Briefly: Binding affinity to recombinant human CA12 by DSF-based fluorescence thermal shift assay.
The target in assay [13] is T1, Carbonic anhydrase 2. Briefly: Binding affinity to recombinant human CA2 in pH 7 sodium phosphate buffer at 37 degC by isothermal titration calorimetry. A general note: In ITC the heat of successive injections is recorded.

Chain of Carbonic anhydrase 4 (P22748 whole entry): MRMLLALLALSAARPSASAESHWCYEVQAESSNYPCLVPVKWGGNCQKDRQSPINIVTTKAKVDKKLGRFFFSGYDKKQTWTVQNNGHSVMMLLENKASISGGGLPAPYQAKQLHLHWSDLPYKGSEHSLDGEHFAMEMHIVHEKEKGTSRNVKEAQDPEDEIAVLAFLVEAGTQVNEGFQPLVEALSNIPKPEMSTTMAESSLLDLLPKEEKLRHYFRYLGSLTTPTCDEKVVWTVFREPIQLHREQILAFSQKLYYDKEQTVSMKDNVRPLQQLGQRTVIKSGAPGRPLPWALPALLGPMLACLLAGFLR
Chain of Carbonic anhydrase 6 (P23280 whole entry): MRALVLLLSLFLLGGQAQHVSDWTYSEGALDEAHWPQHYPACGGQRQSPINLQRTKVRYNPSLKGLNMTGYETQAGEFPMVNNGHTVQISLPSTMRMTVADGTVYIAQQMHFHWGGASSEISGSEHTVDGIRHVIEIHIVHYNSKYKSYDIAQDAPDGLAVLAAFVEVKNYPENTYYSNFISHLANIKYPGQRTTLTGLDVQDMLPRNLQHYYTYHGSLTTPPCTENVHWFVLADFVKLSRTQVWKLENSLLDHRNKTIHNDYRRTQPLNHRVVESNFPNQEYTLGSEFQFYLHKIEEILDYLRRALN
Chain of Carbonic anhydrase 5B, mitochondrial (Q9Y2D0 whole entry): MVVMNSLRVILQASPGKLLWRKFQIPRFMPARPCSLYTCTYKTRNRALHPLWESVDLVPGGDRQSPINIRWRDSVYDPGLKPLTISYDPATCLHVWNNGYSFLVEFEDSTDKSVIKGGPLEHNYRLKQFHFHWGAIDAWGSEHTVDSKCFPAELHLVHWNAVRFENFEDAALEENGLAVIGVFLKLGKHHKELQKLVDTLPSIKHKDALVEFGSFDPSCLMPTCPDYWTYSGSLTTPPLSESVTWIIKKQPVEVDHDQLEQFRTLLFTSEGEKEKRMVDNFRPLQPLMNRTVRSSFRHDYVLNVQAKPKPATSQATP
Chain of Carbonic anhydrase 5A, mitochondrial (P35218 whole entry): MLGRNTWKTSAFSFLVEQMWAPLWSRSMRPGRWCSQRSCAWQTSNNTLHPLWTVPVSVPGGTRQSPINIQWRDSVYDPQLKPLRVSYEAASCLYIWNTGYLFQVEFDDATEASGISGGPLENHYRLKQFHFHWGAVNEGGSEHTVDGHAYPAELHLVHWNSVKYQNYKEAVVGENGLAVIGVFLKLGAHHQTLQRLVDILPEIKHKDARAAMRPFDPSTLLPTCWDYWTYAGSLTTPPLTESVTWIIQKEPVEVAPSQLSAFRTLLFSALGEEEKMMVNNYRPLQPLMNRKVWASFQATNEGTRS
Chain of Carbonic anhydrase 14 (Q9ULX7 whole entry, the tested form may be a part): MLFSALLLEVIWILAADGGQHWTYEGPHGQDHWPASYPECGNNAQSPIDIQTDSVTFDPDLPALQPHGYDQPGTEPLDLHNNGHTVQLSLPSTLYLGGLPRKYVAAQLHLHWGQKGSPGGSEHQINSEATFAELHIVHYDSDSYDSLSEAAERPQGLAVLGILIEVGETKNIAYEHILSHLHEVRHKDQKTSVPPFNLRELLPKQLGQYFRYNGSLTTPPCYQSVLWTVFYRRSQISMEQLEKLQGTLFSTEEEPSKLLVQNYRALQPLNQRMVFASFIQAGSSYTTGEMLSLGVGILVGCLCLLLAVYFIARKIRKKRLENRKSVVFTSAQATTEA
Chain of Carbonic anhydrase 7 (P43166 whole entry): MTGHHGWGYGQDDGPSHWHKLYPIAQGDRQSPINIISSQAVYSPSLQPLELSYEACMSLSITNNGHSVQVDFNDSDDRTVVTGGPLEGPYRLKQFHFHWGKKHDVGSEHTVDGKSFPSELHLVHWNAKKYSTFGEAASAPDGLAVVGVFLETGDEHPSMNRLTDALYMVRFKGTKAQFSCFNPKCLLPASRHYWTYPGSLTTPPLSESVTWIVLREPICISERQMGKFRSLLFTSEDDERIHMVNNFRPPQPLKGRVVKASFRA
Chain of Carbonic anhydrase 12 (O43570 whole entry): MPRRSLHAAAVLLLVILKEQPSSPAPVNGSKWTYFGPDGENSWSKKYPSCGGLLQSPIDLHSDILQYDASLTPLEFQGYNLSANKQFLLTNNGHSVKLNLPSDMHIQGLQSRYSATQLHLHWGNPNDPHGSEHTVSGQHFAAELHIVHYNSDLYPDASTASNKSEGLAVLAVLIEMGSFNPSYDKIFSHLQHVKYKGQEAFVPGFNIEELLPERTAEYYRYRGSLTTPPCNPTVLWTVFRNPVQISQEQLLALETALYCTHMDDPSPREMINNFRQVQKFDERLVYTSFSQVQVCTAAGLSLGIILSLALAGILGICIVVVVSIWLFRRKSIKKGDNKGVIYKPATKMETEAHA
Chain of Carbonic anhydrase 13 (Q8N1Q1 whole entry, the tested form may be a part): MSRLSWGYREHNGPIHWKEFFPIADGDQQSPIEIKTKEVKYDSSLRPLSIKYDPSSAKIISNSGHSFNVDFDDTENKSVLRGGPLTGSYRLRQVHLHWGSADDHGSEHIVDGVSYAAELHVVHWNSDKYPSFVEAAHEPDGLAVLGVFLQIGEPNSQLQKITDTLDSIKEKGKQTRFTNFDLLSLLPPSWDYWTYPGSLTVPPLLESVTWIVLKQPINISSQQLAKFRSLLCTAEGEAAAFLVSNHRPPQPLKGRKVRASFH
Chain of Carbonic anhydrase 1 (P00915 whole entry, the tested form may be a part): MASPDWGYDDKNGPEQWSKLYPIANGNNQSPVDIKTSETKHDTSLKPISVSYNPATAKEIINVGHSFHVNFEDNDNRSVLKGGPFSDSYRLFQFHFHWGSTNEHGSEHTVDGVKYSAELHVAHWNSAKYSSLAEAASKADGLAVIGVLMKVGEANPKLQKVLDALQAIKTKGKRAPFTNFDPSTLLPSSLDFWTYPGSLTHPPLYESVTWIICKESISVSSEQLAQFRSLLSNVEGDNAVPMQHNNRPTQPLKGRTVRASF
Chain of Carbonic anhydrase 3 (P07451 whole entry, the tested form may be a part): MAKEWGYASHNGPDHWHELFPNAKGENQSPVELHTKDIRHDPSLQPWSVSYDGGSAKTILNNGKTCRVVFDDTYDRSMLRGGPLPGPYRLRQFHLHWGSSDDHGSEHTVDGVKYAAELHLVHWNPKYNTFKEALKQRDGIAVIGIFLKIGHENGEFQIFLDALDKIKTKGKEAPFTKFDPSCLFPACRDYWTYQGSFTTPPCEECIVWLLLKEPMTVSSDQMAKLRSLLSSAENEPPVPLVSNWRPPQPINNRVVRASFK

The Kd is the concentration at which binding is half-saturated. On to `Cc1cc(N2CC(C(=O)O)CC2=O)cc(C)c1S(N)(=O)=O` (stereo not drawn), for which the Kd in [1] came out at 20000 nM; in assay [2], 5.9 µM; in assay [3], 5000 nM; in assay [4], 20 µM; in assay [5] it was 3200 nM; in [6], 3300 nM. For the same compound, the dissociation constant Kd in assay [7] is 8300 nM; in [8], ≥ 200 µM; in assay [9] it was 8.3 µM; in [10] it was 12000 nM; in [11] it was 25 µM; in assay [12], 7.7 µM.
As to `Cc1cc(S(N)(=O)=O)c(C)cc1N1CC(C(=O)N/N=C/c2ccccc2)CC1=O` (stereo not drawn), the Kd in assay [1] came out at 1900 nM; in assay [2], 7.6 µM; in [3] it was 1400 nM; in assay [4], 7.1 µM; in assay [5], 470 nM; in assay [6], 28 nM. The Kd in assay [7] is 420 nM; in [8], ≥ 200 µM; in assay [10] it was 1300 nM; in assay [11], 9.6 µM; in assay [12], 9.3 µM.
As for `Cc1cc(N2CC(C(=O)NN)CC2=O)cc(C)c1S(N)(=O)=O` (stereo not drawn), the Kd in [1] was 50000 nM; in [2], 9.1 µM; in assay [3], 13000 nM; in assay [4], 17 µM; in [5], 5000 nM; in assay [6] it was 1400 nM. In addition, the equilibrium dissociation constant (Kd) is 100000 nM in assay [7]; ≥ 200 µM in assay [8]; 20 µM in [9]; 11000 nM in assay [10]; 50 µM in [11]; 50 µM in [12].
Turning to `Cc1cc(N2CC(C(=O)O)CC2=O)c(Cl)c(C)c1S(N)(=O)=O` (stereo not drawn), the Kd in assay [1] is 56 nM; in assay [2] it was 0.36 µM; in [3], 290 nM; in assay [4], 4.3 µM; in assay [6], 530 nM; in assay [7], 220 nM. Further, the dissociation constant (Kd) in assay [8] came to 110 µM; in assay [10] it was 220 nM; in assay [13], 697 nM; in [11], 6.3 µM; in assay [12], 1.3 µM.
`Cc1cc(S(N)(=O)=O)c(C)cc1N1CC(C(=O)NN)CC1=O` (stereo not drawn): the Kd stood at 4400 nM in [1]; 14 µM in assay [2]; 9000 nM in assay [3]; 58 µM in assay [4]; 4000 nM in assay [5]; 660 nM in [6]. The Kd in assay [7] was 2800 nM; in [8], ≥ 200 µM; in assay [10], 8100 nM; in [11], 24 µM; in assay [12], 21 µM.
Turning to `Cc1cc(N2CC(C(=O)N/N=C/c3ccccc3)CC2=O)c(Cl)c(C)c1S(N)(=O)=O` (stereo not drawn), the dissociation constant (Kd) in assay [1] was 33 nM; in assay [2] it was 0.77 µM; in [3], 100 nM; in [4] it was 0.56 µM; in [5], 12 nM; in assay [6], 20 nM. Further, the equilibrium dissociation constant (Kd) was 33 nM in assay [7]; ≥ 200 µM in assay [8]; 56 nM in [10]; 1.4 µM in assay [11]; 0.77 µM in assay [12].
In the case of `COC(=O)C1CC(=O)N(c2cc(C)c(S(N)(=O)=O)cc2C)C1` (stereo not drawn), the Kd in assay [1] came out at 31 nM; in [2], 10 µM; in assay [3], 1600 nM; in [4], 11 µM; in [5] it was 840 nM; in [6] it was 180 nM. Further, the Kd in assay [7] is 580 nM; in assay [8], ≥ 200 µM; in assay [10] it was 1600 nM; in [11] it was 29 µM; in [12] it was 12 µM.
In the case of `NS(=O)(=O)c1ccc(N2CC(C(=O)N/N=C/c3ccccc3)CC2=O)cc1` (stereo not drawn), the Kd amounted to 500 nM in assay [1]; 1.3 µM in [2]; 59 nM in [3]; 0.63 µM in [4]; 200 nM in assay [5]; 1300 nM in [6]. Moreover, the Kd is 830 nM in [7]; ≥ 200 µM in assay [8]; 1.7 µM in [9]; 170 nM in assay [10]; 2 µM in assay [11]; 2.5 µM in assay [12].
As to `Cc1cc(N2CC(C(=O)N/N=C/c3ccccc3)CC2=O)cc(C)c1S(N)(=O)=O` (stereo not drawn), the Kd turned out to be 30000 nM in assay [1]; 5 µM in [2]; 2000 nM in [3]; 2.2 µM in assay [4]; 2000 nM in assay [5]; 710 nM in assay [6]. The Kd in assay [7] was 22000 nM; in assay [8] it was ≥ 200 µM; in assay [9] it was 2 µM; in assay [10], 2200 nM; in assay [11] it was 25 µM; in [12], 29 µM.
`COC(=O)C1CC(=O)N(c2ccc(S(N)(=O)=O)cc2)C1` (stereo not drawn): the Kd was determined as 130 nM in [1]; 1.5 µM in [2]; 170 nM in assay [3]; 1 µM in [4]; 96 nM in assay [5]; 3300 nM in [6]. Also, the dissociation constant Kd in [7] was 1100 nM; in assay [8], ≥ 200 µM; in [10], 150 nM; in [11] it was 0.094 µM; in assay [12], 4 µM.
Take `Cc1cc(C)n(C(=O)C2CC(=O)N(c3cc(C)c(S(N)(=O)=O)c(C)c3)C2)n1` (stereo not drawn): the Kd in assay [1] came out at 3300 nM; in assay [2], 6 µM; in [3], 2000 nM; in [4], 1.5 µM; in [6] it was 500 nM; in assay [7], 3700 nM. The dissociation constant (Kd) was ≥ 200 µM in assay [8]; 910 nM in assay [10]; 318 nM in assay [13]; 28 µM in assay [11]; 8.3 µM in assay [12].
For `Cc1cc(S(N)(=O)=O)c(C)cc1N1CC(C(=O)O)CC1=O` (stereo not drawn), the dissociation constant Kd in assay [1] came out at 2700 nM; in [2], 19 µM; in [3], 2600 nM; in assay [4], 38 µM; in [5], 3900 nM; in assay [6], 1100 nM. Moreover, the equilibrium dissociation constant (Kd) in [7] was 670 nM; in assay [8], 160 µM; in assay [10], 6400 nM; in assay [11], 22 µM; in [12], 8.1 µM.
Turning to `NNC(=O)C1CC(=O)N(c2ccc(S(N)(=O)=O)cc2)C1` (stereo not drawn), the Kd amounted to 670 nM in assay [1]; 2.2 µM in assay [2]; 630 nM in assay [3]; 3.3 µM in assay [4]; 910 nM in [5]; 10000 nM in [6]. Besides, the Kd in assay [7] was 7700 nM; in assay [8], ≥ 200 µM; in assay [9] it was 50 µM; in [10], 500 nM; in assay [11], 10 µM; in assay [12] it was 4 µM.

Source of the values: ChEMBL document CHEMBL4308907, “Pyrrolidinone-bearing methylated and halogenated benzenesulfonamides as inhibitors of carbonic anhydrases” (Bioorg Med Chem, 2019).
